From patent US9994616B2, “c-Met protein agonist” (The University of Tokyo, priority 2013, dated 2018)

Tests used:
[1] = tested on: c-Met, Gab1, Akt, and Erk proteins; assay: Activity of dimeric peptide by western blotting in EHMES-1 cells; type: cell-based, human; conditions: 10 minutes, FIG. 5
Description: The optimum concentration of each of the dimeric peptides was added to cultured EHMES-1 cells derived from human mesothelioma and the resulting mixture was incubated for 10 minutes to stimulate the cells. As a control experiment, 2 nM of a recombinant human HGF protein was added, followed by incubation for 10 minutes.
The cells were lysed and the resulting lysate was electrophoresed using a 10% modified polyacrylamide gel. After transcription of the protein thus separated to an Immobilon-P PVDF membrane (Millipore) and blocking with PVDF Blocking Reagent for Can Get Signal (TOYOBO), a primary antibody reaction of it was performed overnight at 4° C. in Can Get Signal Solution 1 (TOYOBO). As the antibody, anti-Met (Millipore, EP1454Y), anti-Phospho-Met Tyr1234/1235 (Cell Signaling Technology, D26), anti-Phospho-Met Tyr1349 (Millipore, 07-808), anti-Akt (Cell Signaling Technology, 11E7), anti-Phospho-Akt Thr308 (Cell Signaling Technology, D25E6), anti-Erk1/2 (Cell Signaling Technology, 137F5), anti-Phospho-Erk1/2 Thr202/Tyr204 (Cell Signaling Technology, D13.14.4E), anti-Gab1 (Cell Signaling Technology), or anti-Phospho-Gab1 Tyr 627 (Cell Signaling Technology, C32H2) was used. Then, a secondary antibody reaction was performed at room temperature for one hour in Can Get Signal Solution 2 (TOYOBO) by using an anti-rabbit antibody HRP conjugate. […]

c-Met = target: T1, c-Met (Homo sapiens, UniProt P08581); assay: Activity of dimeric peptide by Phospho-RTK array in EHMES-1 cells; type: cell-based; conditions: optimum concentration, 10 minutes, FIG. 4
T1 construct: endogenous in cells; host or cells: EHMES-1 (human mesothelioma)
T1 sequence (P08581 25-1390): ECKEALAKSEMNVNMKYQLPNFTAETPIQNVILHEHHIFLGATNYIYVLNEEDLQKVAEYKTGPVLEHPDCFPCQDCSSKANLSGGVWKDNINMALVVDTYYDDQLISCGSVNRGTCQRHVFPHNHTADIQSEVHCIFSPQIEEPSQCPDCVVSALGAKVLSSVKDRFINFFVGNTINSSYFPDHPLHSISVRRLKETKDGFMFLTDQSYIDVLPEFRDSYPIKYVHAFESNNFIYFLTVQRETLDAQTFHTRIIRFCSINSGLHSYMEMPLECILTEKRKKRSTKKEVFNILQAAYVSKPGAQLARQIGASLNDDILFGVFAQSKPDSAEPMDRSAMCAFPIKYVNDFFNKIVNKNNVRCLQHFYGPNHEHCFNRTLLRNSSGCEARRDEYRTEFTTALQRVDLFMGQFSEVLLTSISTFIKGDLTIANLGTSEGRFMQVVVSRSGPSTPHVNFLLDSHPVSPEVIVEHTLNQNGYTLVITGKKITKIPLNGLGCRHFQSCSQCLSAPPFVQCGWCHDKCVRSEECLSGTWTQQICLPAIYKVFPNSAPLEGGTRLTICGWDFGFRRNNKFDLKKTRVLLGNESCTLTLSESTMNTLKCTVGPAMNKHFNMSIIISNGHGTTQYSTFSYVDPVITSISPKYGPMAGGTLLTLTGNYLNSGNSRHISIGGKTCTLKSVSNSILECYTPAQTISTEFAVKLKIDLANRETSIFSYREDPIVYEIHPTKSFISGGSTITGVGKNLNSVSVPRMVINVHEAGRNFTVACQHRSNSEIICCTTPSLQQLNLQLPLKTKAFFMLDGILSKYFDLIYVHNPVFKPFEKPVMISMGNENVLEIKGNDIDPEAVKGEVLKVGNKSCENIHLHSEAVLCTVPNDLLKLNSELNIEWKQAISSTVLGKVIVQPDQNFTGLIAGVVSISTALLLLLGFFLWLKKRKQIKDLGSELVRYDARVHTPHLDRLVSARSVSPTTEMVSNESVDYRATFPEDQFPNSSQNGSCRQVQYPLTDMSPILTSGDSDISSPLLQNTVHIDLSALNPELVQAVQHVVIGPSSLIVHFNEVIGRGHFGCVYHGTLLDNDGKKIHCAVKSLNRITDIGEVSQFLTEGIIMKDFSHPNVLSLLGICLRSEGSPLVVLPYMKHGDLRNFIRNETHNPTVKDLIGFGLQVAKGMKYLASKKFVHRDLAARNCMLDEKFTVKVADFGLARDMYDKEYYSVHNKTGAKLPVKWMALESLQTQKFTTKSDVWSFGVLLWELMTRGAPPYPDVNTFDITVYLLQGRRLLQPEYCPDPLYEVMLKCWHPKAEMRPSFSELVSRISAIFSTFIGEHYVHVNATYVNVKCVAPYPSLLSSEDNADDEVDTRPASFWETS
Description: The optimum concentration of each dimeric peptide was added to cultured EHMES-1 cells derived from human mesothelioma and the resulting mixture was incubated for 10 minutes to stimulate the cells. As a control experiment, 2 nM recombinant human HGF protein was added, followed by incubation for 10 minutes.
The resulting cells were lyzed and the lysate thus obtained was analyzed using Phospho-RTK array (R&D Systems) to evaluate whether or not the c-Met of the cells was phosphorylated.

## HGF: recombinant human HGF protein, natural ligand of c-Met, control
[1]
  Phosphorylation of c-Met, Gab1, Akt, and Erk proteins (western blotting): promote phosphorylation
c-Met
  Autophosphorylation of c-Met (Phospho-RTK array): autophosphorylation is induced
